{
  "source": "patent US6376540B1",
  "about": "“Furan nitrone compounds” (Centaur Pharmaceuticals, Inc., priority 1996, dated 2002)",
  "key": {"synthetic Aβ(1-40)": {"molecular_target": "T1, synthetic Aβ(1-40) (Homo sapiens, UniProt P05067)", "T1 construct": "3 μL of Aβ(1-40)(3 μg) prepared with dH2O", "T1 sequence (P05067 672-711 limits assumed)": "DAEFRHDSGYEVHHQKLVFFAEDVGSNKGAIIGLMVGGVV", "experiment": "Inhibition of Aβ(1-40) beta-pleated sheet formation (ThT fluorescence)", "format": "biochemical", "conditions": "10 μM compound, ThT 3 μM, PBS pH 6.0, 12 hours; for inhibition at 10 µM: read-out: inhibition of Aβ(1-40) beta-pleated sheet formation compared to the controls", "excerpt": "The deposition of amyloid β-peptide (Aβ) is associated with the development of Alzheimer's disease. See, for example, G. G. Glenner et al. (1984) Biochem. Biophys. Res. Commun., 120:885-890; and R. E. Tanzi (1989) Ann. Med., 21:91-94. Accordingly, compounds which effectively disrupt the formation of Aβ(1-40) or Aβ(1-42) beta-pleated sheets are potentially useful for preventing and/or reversing such amyloid deposits. Thioflavin T (ThT) is known to rapidly associate with beta-pleated sheets, particularly the aggregated fibrils of synthetic Aβ(1-40). This association gives rise to a new excitation maximum at 440 nm and to enhanced emission at 490 nm.\nThe experiments were performed using a CytoFluor II fluorescence plate reader having the following parameters:\nInto each well was aliquoted 95 μl of ThT (3 μM) prepared in PBS (pH 6.0), 2 μL of the compound to be tested (10 μM) prepared with 0.05% of methylcellulose in PBS (pH 6.0), and 3 μL of Aβ(1-40)(3 μg) prepared with dH2O (the compounds prepared in Examples 1, 3, 4, 5, 6, 7, 8, 9, 11 and 12 were tested). The fluorescence measurement began when the Aβ(1-40) was added and continued for a total of 12 hours. The percent inhibition of beta-pleated sheet formation was calculated from the relative fluorescence unit difference between aggregation in the presence and in the absence of the test compounds."}, "THP-1 cells": {"test_system": "THP-1 cells", "experiment": "Reduction of β-amyloid-induced increased IL-1β release (ELISA)", "format": "cell-based, human", "conditions": "100 μM test compound with LPS and Aβ25-35, 48 hours", "experimental": "THP-1 cells, a human monocyte cell line from American Type Culture Collection, were grown in RPMI-1640 medium plus 10% fetal bovine serum (FBS, not heat-inactivated) in T-flasks. The medium was changed every two days by spinning down (800 rpm, 5 minutes) the cells and added the same fresh medium. Alternatively, the cultures were maintained by the addition of fresh medium. The cultures were maintained at a cell concentration ranging from between 1×10^5 and 1×10^6 cells/mL. Because sera may contain unknown factors which can affect macrophage/monocyte IL-1 production, the FBS was reduced to 5% for 24 hours. The FBS was further reduced to 2% over two days prior to starting each experiment. The cells were collected by centrifugation and resuspended to 2% FBS. Cell numbers were calculated and cells were plated on 24-well plates (3×10^5 cells/0.6 mL/well). Cells were then treated with LPS (0.5 μg/ml or 0-10 μg/ml for LPS dose-response experiments) alone or in combination with Aβ peptides (5 μM or 0.05-5 μM for dose-response experiments). When determining the effect of the test compounds on cytokine release, 100 μM of the test compound was added with the LPS and Aβ25-35 and this mixture was incubated for 48 hours prior to performing ELISA.\nIL-1β secretions into medium by LPS-stimulated THP-1 cells, in the presence or absence of amyloid peptides and a test compound, were assayed with a commercially available ELISA kit (R & D Systems). Briefly, a microtiter plate coated with a murine monoclonal antibody to human IL-1β was supplied by the manufacturer. Standards and samples were pipetted into the wells and any IL-1β present was bound by the immobilized antibody. Unbound proteins were washed away and a horseradish peroxidase-linked polyclonal antibody specific for IL-1β was added to the wells to “sandwich”the IL-1β bound in the initial step. […] Color development was stopped with 2 N sulfuric acid and the optical density of the standard and the test samples was measured at 450 nm. The amounts of IL-1β present in the samples were calculated based upon a standard curve. […]"}, "[1]": {"experiment": "Free radical trapping, DCF oxidation, tert-butyl hydroperoxide system", "format": "biochemical", "conditions": "100 μM test compound, 25 μM tert-butyl hydroperoxide, 50 μM DCF in MEM, 37° C., 2 hrs", "experimental": "(§1) Dichlorofluorescein (DCF) is a compound that fluoresces when oxidized by reactive oxygen species (ROS), such as hydroxyl, peroxyl, or alkoxyl free radicals. Test compounds were evaluated for their ability to scavenge radicals by determining their capacity to prevent the DCF oxidation in a radical generating environment. Two radical generating systems were used: (i) ferrous iron and (ii) tert-butyl hydroperoxide. When ferrous iron is placed in normoxic solution, it autooxidizes to produce ROS in the form of hydroxyl radicals, superoxide anion free radicals, and hydrogen peroxide. Similarly, when tert-butyl hydroperoxide is placed in non-chelated media, trace metals catalyze its oxidation to yield alkoxy, peroxyl, and alkyl free radicals.\n(§2) In this assay, either 100 μM FeSO4 or 25 μM tert-butyl hydroperoxide were mixed with 50 μM DCF and 100 μM of the test compound in MEM and the mixture was incubated at 37° C. for 2 hrs. The fluorescence wavelengths measured were 485 nm for excitation and 530 nm for emission. In these tests, N-isopropyl-α-(2-sulfofuran-5-yl)nitrone sodium salt (prepared in Example 1 above) reduced fluorescence by 20% in the Fe^+2 assay and by 13% in the tert-butyl hydroperoxide assay. In comparison, a known free radical trap, N-tert-butyl-α-phenylnitrone (PBN) reduced fluorescence by 48% in the Fe^+2 assay and by 9% in the tert-butyl hydroperoxide assay."}, "[2]": {"experiment": "Free radical trapping, DCF oxidation, ferrous iron system", "format": "biochemical", "conditions": "100 μM test compound, 100 μM FeSO4, 50 μM DCF in MEM, 37° C., 2 hrs", "experimental": "as §1, §2"}, "[3]": {"test_system": "primary neuronal/astrocyte cultures", "experiment": "Protection against Aβ(25-35)-induced neuronal cell loss", "format": "cell-based, Sprague Dawley rat", "conditions": "100 μM test compound, 30 μM Aβ(25-35), 96 hours", "experimental": "Patients with Alzheimer's disease are known to suffer a progressive loss of neuronal cells. See, for example, P. J. Whitehause et al., (1982) Science, 215:1237-1239. […] Sprague Dawley rat hippocampus of 18-day-gestation embryos was excised and then dissociated by trituration to prepare primary neuronal/astrocyte cultures. Cells (3×10^5) were plated on 35 mm poly-D-lysine-coated plates containing Eagle's minimum essential medium supplemented with 10% fetal bovine serum. After 3-5 hours, the original medium was removed and replaced with 1 mL of fresh medium. Cultures were maintained at 37° C. in a 5% CO2/95% air humidified incubator.\nTo the cells (7 DIV) was added 30 μM of Aβ(25-35) dissolved in dH2O (stored at −20° C.) and 100 μM of the test compound (i.e., a compound of Example 1, 3, 4, 5, 6, 7, 8, 12 or 13 above) in 1% methylcellulose. Controls were also conducted without the test compound. The percentage of morphologically viable neurons was determined counting the number of viable neurons after 96 hours treatment compared to the number of neurons before treatment in the same premarked culture regions (three regions/culture, n=6)."}},
  "data": [
    {"compound": "O=S(=O)(O)c1ccc(C=[N+]([O-])C2CCCCC2)o1", "note": "[Example 6, N-Cyclohexyl-α-(2-sulfofuran-5-yl)nitrone]", "values": [
      {"measurement": "inhibition at 10 µM", "setting": "synthetic Aβ(1-40)", "result": "15 to 71", "unit": "%"}
    ]},
    {"compound": "CCCCCC[N+]([O-])=Cc1ccc(S(=O)(=O)O)o1", "note": "[Example 5, N-n-Hexyl-α-(2-sulfofuran-5-yl)nitrone]", "values": [
      {"measurement": "inhibition at 10 µM", "setting": "synthetic Aβ(1-40)", "result": "15 to 71", "unit": "%"}
    ]},
    {"compound": "CCN(CC)S(=O)(=O)c1ccc(C=[N+]([O-])C(C)C)o1", "note": "[Example 12, N-Isopropyl-α-[2-(N,N-diethylsulfamoyl)furan-5-yl]nitrone]", "values": [
      {"measurement": "inhibition at 10 µM", "setting": "synthetic Aβ(1-40)", "result": "15 to 71", "unit": "%"}
    ]},
    {"compound": "CC(C)[N+]([O-])=Cc1ccc(S(=O)(=O)N2CCN(C)CC2)o1", "note": "[Example 14, N-Isopropyl-α-[2-(N-4-methylpiperazin-1-ylsulfonyl)furan-5-yl]nitrone]", "values": [
      {"measurement": "reduction of the β-amyloid-induced increased release of interleukin-1β compared to the controls", "setting": "THP-1 cells", "result": "did not significantly reduce"}
    ]},
    {"compound": "CC(C)(C)[N+]([O-])=Cc1ccccc1", "note": "[PBN, N-tert-butyl-α-phenylnitrone, reference compound]", "values": [
      {"measurement": "reduced fluorescence in the tert-butyl hydroperoxide assay", "setting": "[1]", "result": 9, "unit": "%"},
      {"measurement": "reduced fluorescence in the Fe^+2 assay", "setting": "[2]", "result": 48, "unit": "%"}
    ]},
    {"compound": "CC(C)(C)[N+]([O-])=Cc1ccc(S(=O)(=O)O)o1", "note": "[Example 4, N-tert-Butyl-α-(2-sulfofuran-5-yl)nitrone]", "values": [
      {"measurement": "inhibition of Aβ(1-40) beta-pleated sheet formation compared to the controls", "setting": "synthetic Aβ(1-40)", "result": "did not significantly reduce"},
      {"measurement": "reduction of Aβ(25-35)-induced neuronal cell loss compared to the controls", "setting": "[3]", "result": "did not significantly reduce"}
    ]},
    {"compound": "CCCC[N+]([O-])=Cc1ccc(S(=O)(=O)O)o1", "note": "[Example 3, N-n-Butyl-α-(2-sulfofuran-5yl)nitrone]", "values": [
      {"measurement": "inhibition of Aβ(1-40) beta-pleated sheet formation compared to the controls", "setting": "synthetic Aβ(1-40)", "result": "did not significantly reduce"}
    ]},
    {"compound": "CC(C)(C)CC(C)(C)[N+]([O-])=Cc1ccc(S(=O)(=O)O)o1", "note": "[Example 7, N-tert-Octyl-α-(2-sulfofuran-5-yl)nitrone]", "values": [
      {"measurement": "inhibition at 10 µM", "setting": "synthetic Aβ(1-40)", "result": "15 to 71", "unit": "%"}
    ]},
    {"compound": "O=S(=O)(O)c1ccc(C=[N+]([O-])Cc2ccccc2)o1", "note": "[Example 9, N-Benzyl-α-(2-sulfofuran-5-yl)nitrone]", "values": [
      {"measurement": "inhibition at 10 µM", "setting": "synthetic Aβ(1-40)", "result": "15 to 71", "unit": "%"}
    ]},
    {"compound": "CC(C)[N+]([O-])=Cc1ccc(S(=O)(=O)N2CCOCC2)o1", "note": "[Example 11, N-Isopropyl-α-[2-(N-morpholinosulfonyl)furan-5-yl]nitrone]", "values": [
      {"measurement": "reduction of the β-amyloid-induced increased release of interleukin-1β compared to the controls", "setting": "THP-1 cells", "result": "did not significantly reduce"}
    ]},
    {"compound": "N-Adamantyl-α-(2-sulfofuran-5-yl)nitrone [Example 8]", "values": [
      {"measurement": "inhibition of Aβ(1-40) beta-pleated sheet formation compared to the controls", "setting": "synthetic Aβ(1-40)", "result": "did not significantly reduce"}
    ]},
    {"compound": "CC(C)[N+]([O-])=Cc1ccc(S(=O)(=O)N2CCN(C)CC2)o1.Cl", "note": "[Example 15, N-Isopropyl-α-[2-(N-4-methylpiperazin-1-ylsulfonyl)-furan-5-yl]nitrone Hydrochloride]", "values": [
      {"measurement": "reduction of the β-amyloid-induced increased release of interleukin-1β compared to the controls", "setting": "THP-1 cells", "result": "did not significantly reduce"}
    ]}
  ]
}
